Data reported in patent publication US20050112573A1, “Method of detecting toxic substance” (priority 2001, published 2005).

System: yeast genes (level of expressed mRNA)
Assay: DNA chip analysis of expressed mRNA of yeast genes after 2 h culture with a toxic chemical substance
Format: cell-based, Saccharomyces cerevisiae S288C
Experimental: Yeast (Saccharomyces cerevtisiae S288C (α SUC2mal mel gap2 CUP1)) were cultured at 25° C. on YPD medium (yeast extract 1%, polypepton 2%, glucose 2%). One of toxic chemical substances was added to the cell at logarithmic growth phase, and the cell was further cultured for two hours. Cell was cultured without any chemical substance in the same condition, and was used as control. Concentrations of the chemical substances were defined to inhibit the growth of the yeast but not lead to death.
After the completion of cultivation, the culture was centrifuged to collect the cells. To the cells, sodium acetate buffer (50 mM sodium acetate, 10 mM EDTA, 1% SDS) was added, and the mixture was shaken at 65° C. for five minutes, followed by returning to room temperature, and obtaining the supernatant, which procedure was repeated two times. To the supernatant, ½ amount of a solution of phenol/chloroform was added, and the mixture was centrifuged to give a supernatant, which was added with an equal amount of chloroform, and the mixture was centrifuged to give a supernatant. To the supernatant, an equal amount of isopropanol containing 0.3 M sodium acetate was added, and the mixture was allowed to stand at room temperature for 30 minutes, after which the mixture was centrifuged to give a sediment of the whole RNAs. Seventy % ethanol was added to the sediment, and the mixture was again centrifuged to give a sediment, which was then dried and dissolved in water. mRNA was isolated from the whole RNAs as followings. In view of the fact that a poly A chain is attached to the 3′ terminus of mRNA, a polynucleotide having a poly T structure which was immobilized on the surface of latex beads was used to trap the mRNA, and then the mRNA was washed and eluted with spine column (Oligotex-dT30<Super>mRNA Purification Kit, Takara). Reverse transcription of the mRNA was conducted with a reverse transcriptase (Super Script II Reverse Transcriptase; catalogue No. 18064-014, GibcoBRL) using fluorescence-labeled nucleotides to give cDNAs that were introduced with Cy3-dUTP or Cy5-dUTP during the reverse transcription.
The labeled cDNAs were dissolved in TE buffer (10 mM Tris-HCl/1 mM EDTA, pH8.0), and the solution was dropped on the DNA chip containing the whole genes of yeast (DNA Chip Research Inc. Japan) so that the cDNAs were hybridized on the DNA chip at 65° C. for over 12 hours. The fluoresces intensity of the DNA chip was read with a scanner, and the ratio relative to the fluorescence intensity resulting from the absence of chemical substance was estimated as the following, which is shown in Tables 1 to 9: [formula]
In the Tables, “Intensity” indicated in the rightmost column is a value of the level of expressed mRNA of each gene in control cells as divided by the average level of the expressions of the whole genes.

SMILES: CCCCC[C@H](O)CC(=O)CCc1ccc(O)c(OC)c1 [(13), gingerol]
- level of expressed mRNA in the presence of chemical substance/in its absence (gene YGR282C): 1.2
- The level of expressed mRNA in the presence of chemical substance/absence: YGR293C (gene YGR293C): 0.7
- The level of expressed mRNA in the presence of chemical substance/absence: YHL006C (gene YHL006C): 1.1
- The level of expressed mRNA in the presence of chemical substance/absence: YHL021C (gene YHL021C): 2.6
- The level of expressed mRNA in the presence of chemical substance/absence: YHL037C (gene YHL037C): 1.0
- level of expressed mRNA in the presence of chemical substance/in its absence (gene YHR037W): 1.1
- The level of expressed mRNA in the presence of chemical substance/absence: YHR083W (gene YHR083W): 1.1
- level of expressed mRNA in the presence of chemical substance/in its absence (gene YHR092C): 0.5
- The level of expressed mRNA in the presence of chemical substance/absence: YHR095W (gene YHR095W): 0.7
- The level of expressed mRNA in the presence of chemical substance/absence: YHR105W (gene YHR105W): 1.4
- The level of expressed mRNA in the presence of chemical substance/absence: YHR134W (gene YHR134W): 1.2
- level of expressed mRNA in the presence of chemical substance/in its absence (gene YHR137W): 0.6
- The level of expressed mRNA in the presence of chemical substance/absence: YHR180W (gene YHR180W): 1.3
- The level of expressed mRNA in the presence of chemical substance/absence: YHR181W (gene YHR181W): 0.7
- level of expressed mRNA in the presence of chemical substance/in its absence (gene YHR190W): 1.7
- level of expressed mRNA in the presence of chemical substance/in its absence (gene YIL033C): 2.5
- The level of expressed mRNA in the presence of chemical substance/absence: YIL108W (gene YIL108W): 1.3
- The level of expressed mRNA in the presence of chemical substance/absence: YIL127C (gene YIL127C): 0.4
- level of expressed mRNA in the presence of chemical substance/in its absence (gene YIL154C): 1.7
- The level of expressed mRNA in the presence of chemical substance/absence: YIL165C (gene YIL165C): 1.5
- level of expressed mRNA in the presence of chemical substance/in its absence (gene YIL167W): 1.2
- level of expressed mRNA in the presence of chemical substance/in its absence (gene YIR035C): 1.1
- The level of expressed mRNA in the presence of chemical substance/absence: YJL017W (gene YJL017W): 1.5
- The level of expressed mRNA in the presence of chemical substance/absence: YJL032W (gene YJL032W): 1.4
- The level of expressed mRNA in the presence of chemical substance/absence: YJL037W (gene YJL037W): 1.1
- The level of expressed mRNA in the presence of chemical substance/absence: YJL049W (gene YJL049W): 0.9
- level of expressed mRNA in the presence of chemical substance/in its absence (gene YJL088W): 1.0
- The level of expressed mRNA in the presence of chemical substance/absence: YJL097W (gene YJL097W): 0.7
- level of expressed mRNA in the presence of chemical substance/in its absence (gene YJL132W): 1.3
- level of expressed mRNA in the presence of chemical substance/in its absence (gene YJL196C): 0.6
- The level of expressed mRNA in the presence of chemical substance/absence: YJR030C (gene YJR030C): 0.7
- The level of expressed mRNA in the presence of chemical substance/absence: YJR044C (gene YJR044C): 2.0
- level of expressed mRNA in the presence of chemical substance/in its absence (gene YJR142W): 1.6
- level of expressed mRNA in the presence of chemical substance/in its absence (gene YJR148W): 1.1
- level of expressed mRNA in the presence of chemical substance/in its absence (gene YJR159W): 2.1
- The level of expressed mRNA in the presence of chemical substance/absence: YKL051W (gene YKL051W): 1.2
- The level of expressed mRNA in the presence of chemical substance/absence: YKL059C (gene YKL059C): 1.3
- level of expressed mRNA in the presence of chemical substance/in its absence (gene YKL067W): 1.7
- The level of expressed mRNA in the presence of chemical substance/absence: YKL090W (gene YKL090W): 0.8
- The level of expressed mRNA in the presence of chemical substance/absence: YKL094W (gene YKL094W): 1.7
- The level of expressed mRNA in the presence of chemical substance/absence: YKL097C (gene YKL097C): 0.9
- The level of expressed mRNA in the presence of chemical substance/absence: YKL100C (gene YKL100C): 1.3
- level of expressed mRNA in the presence of chemical substance/in its absence (gene YKR039W): 1.3
- The level of expressed mRNA in the presence of chemical substance/absence: YKR040C (gene YKR040C): 0.6
- The level of expressed mRNA in the presence of chemical substance/absence: YLR097C (gene YLR097C): 1.1
- level of expressed mRNA in the presence of chemical substance/in its absence (gene YLR142W): 1.2
- level of expressed mRNA in the presence of chemical substance/in its absence (gene YLR180W): 0.6
- The level of expressed mRNA in the presence of chemical substance/absence: YLR226W (gene YLR226W): 0.7
- level of expressed mRNA in the presence of chemical substance/in its absence (gene YLR273C): 1.7
- level of expressed mRNA in the presence of chemical substance/in its absence (gene YLR300W): 0.2
- level of expressed mRNA in the presence of chemical substance/in its absence (gene YLR307W): 1.0
- The level of expressed mRNA in the presence of chemical substance/absence: YLR338W (gene YLR338W): 1.2
- The level of expressed mRNA in the presence of chemical substance/absence: YLR339C (gene YLR339C): 0.1
- The level of expressed mRNA in the presence of chemical substance/absence: YLR392C (gene YLR392C): 1.4
- The level of expressed mRNA in the presence of chemical substance/absence: YLR415C (gene YLR415C): 1.0
- The level of expressed mRNA in the presence of chemical substance/absence: YLR427W (gene YLR427W): 2.5
- The level of expressed mRNA in the presence of chemical substance/absence: YML013W (gene YML013W): 1.2
